For data set [1] the following is noted: all compositions, in water; cited from earlier work.
For data set [2] the following is noted: diluted water solution; cited from earlier work.
Data set [3] in a line: visual inspection of mixtures of monocaproin with polar solvents (miscibility). The format is physicochemical. The source says: Many galenic formulations of drugs contain polar solvents.

We go through 1 compound from patent US5906831A, “Controlled release composition forming a reversed micellar (L2) structure or a normal micellar (L1) structure” (GS Development AB, priority 1994, dated 1999).

As for `CCCCCC(=O)OCC(O)CO` (stereo not drawn) [monocaproin, glycerolmonohexanoate], the “phase behaviour of aqueous system” value in data set [1] is recorded as “one single liquid phase at all compositions”. In addition, the “critical micellar concentration (cmc)” value in data set [2] is 160 mM. Moreover, the Appearance entry in data set [3] (5% Ethanol / 5% Propylene Glycol (w/w), 90% monocaproin) is “clear, low viscous”; in data set [3] (10% (w/w) Ethanol, 90% monocaproin), “clear, low viscous”; in data set [3] (10% (w/w) Propylene Glycol, 90% monocaproin), “clear, low viscous”; in data set [3] (90% (w/w) Ethanol, 10% monocaproin), “clear, low viscous”.
